Laboratory results: patent EP1541694A1, “Methods of identifying, selecting and/or characterizing compounds which modulate the activity of a Src family kinase” (Sirenade Pharmaceuticals AG, priority 2003, dated 2005)

Tests used:
[1] = tested on: Src-KA expressing ZM76 cell lines; assay: Suppression of tet-induced phenotype changes, evaluated by eye/microscope, normal cell culture plates; format: cell-based, human; settings: adherent, serum-containing medium + EGF, PP1-Chr. and PP2 shown as combination
Experimental: Phenotype changes -tet → +tet were evaluated in 24-well plates (Nunc; cat.no. 143982) under the following several different growth conditions to identify the strongest possible response (Δpt(-tet→+tet)max) 1. full (10% serum containing) growth medium a) without any growth factor supplement (-), b) with epidermal growth factor (EGF; 100ng/ml) (cat.no. 115, Research Diagnostics Inc. (RDI), Flanders, NJ, USA) or c) platelet derived growth factor type BB (PDGF-BB; 30ng/ml) (cat.no. 114b, RDI) or d) hepatocyte growth factor (HGF; 20ng/ml) (RDI, cat.no.300-010), or 2. serum-free medium a) - or b) +EGF or c) +PDGF or d) +HGF. In all cases, cells were first seeded into standard 24-well or 96-well plates (Nunc) in full growth medium. The cell number seeded per well was also varied to identify the most suitable cell densities producing Δpt(-tet→+tet)max. […]
To that end, the test compounds PP1-Chr., PP2 (cat.no. 529573, Calbiochem) and SU6656 (cat.no. 572635, Calbiochem) (see Fig.9p for chemical structures) were individually added to the cells together with tet, and the development of the phenotype changes in the presence of these compounds was monitored subsequently in direct comparison with cells that received no compound or only vehicle (0.2% DMSO) together with tet induction. […]

[2] = tested on: Src family kinases when they carry the respective TQ mutations; settings: cited from earlier work

CC(C)(C)n1nc(-c2ccc(Cl)cc2)c2c(N)ncnc21 [PP2]
suppression of tet-induced phenotype changes [1]: not able to suppress
inhibition of Src family kinases carrying the TQ mutations [2]: do not inhibit
